A word on the Kd: it is a measure of binding affinity in units of concentration.

We go through six compounds from publication PMC10316084, “Bacteroidota polysaccharide utilization system for branched dextran exopolysaccharides from lactic acid bacteria” (The Journal of Biological Chemistry, 2023).

Test [1] has as its target T1, FjDusD (Flavobacterium johnsoniae, UniProt A5FBI4).
T1 construct: gene Fjoh_4433; signal peptide evaluated by SignalP
T1 sequence (A5FBI4 22-494): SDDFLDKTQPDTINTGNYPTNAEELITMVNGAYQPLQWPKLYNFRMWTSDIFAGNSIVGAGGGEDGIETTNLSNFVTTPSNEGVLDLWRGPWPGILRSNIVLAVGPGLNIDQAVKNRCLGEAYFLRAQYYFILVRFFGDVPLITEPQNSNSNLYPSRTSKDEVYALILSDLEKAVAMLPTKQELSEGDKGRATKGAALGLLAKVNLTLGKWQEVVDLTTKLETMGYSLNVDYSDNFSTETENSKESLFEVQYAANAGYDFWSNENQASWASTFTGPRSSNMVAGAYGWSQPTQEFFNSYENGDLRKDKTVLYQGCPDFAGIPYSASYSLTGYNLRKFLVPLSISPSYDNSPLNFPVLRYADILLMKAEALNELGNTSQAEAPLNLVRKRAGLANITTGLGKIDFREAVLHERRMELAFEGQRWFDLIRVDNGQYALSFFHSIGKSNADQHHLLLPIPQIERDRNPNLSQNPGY
In words: isothermal titration calorimetry. The class given is binding. Conditions: 10 mM HEPES-NaOH pH 7.0, 25 °C; one-site model (n = 1). An excerpt:
isothermal titration calorimetry on FjDusD
(ITC needs no label: the signal is the heat of the interaction.)

Test [2] has as its target T2, FjGH66 (Flavobacterium johnsoniae, UniProt A5FBI2).
T2 construct: gene Fjoh_4431; domains 41-126, 127-464, 485-586
T2 sequence (A5FBI2 34-586): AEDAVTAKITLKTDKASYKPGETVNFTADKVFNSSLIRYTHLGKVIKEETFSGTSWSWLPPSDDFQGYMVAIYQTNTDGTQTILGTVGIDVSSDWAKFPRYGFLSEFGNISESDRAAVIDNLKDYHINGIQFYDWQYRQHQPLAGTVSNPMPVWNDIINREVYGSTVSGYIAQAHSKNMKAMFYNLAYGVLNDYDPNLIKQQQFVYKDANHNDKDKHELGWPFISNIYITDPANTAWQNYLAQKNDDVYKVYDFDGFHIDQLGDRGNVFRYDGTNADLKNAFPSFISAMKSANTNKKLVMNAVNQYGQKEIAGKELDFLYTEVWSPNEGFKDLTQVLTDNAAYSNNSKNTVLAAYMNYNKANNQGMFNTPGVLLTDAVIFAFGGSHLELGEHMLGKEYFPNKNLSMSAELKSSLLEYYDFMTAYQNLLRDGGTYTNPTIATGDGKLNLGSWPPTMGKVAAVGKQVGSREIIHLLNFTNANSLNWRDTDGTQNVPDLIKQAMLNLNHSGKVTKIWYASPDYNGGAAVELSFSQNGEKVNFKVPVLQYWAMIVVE
In words: X-ray crystal structure, […] Å. The class given is binding.

SMILES strings stand for the structures.

On to `OC[C@H]1O[C@H](OC[C@H]2O[C@H](OC[C@H]3O[C@H](OC[C@H]4O[C@H](OC[C@H]5O[C@H](OC[C@H]6OC(O)[C@H](O)[C@@H](O)[C@@H]6O)[C@H](O)[C@@H](O)[C@@H]5O)[C@H](O)[C@@H](O)[C@@H]4O)[C@H](O)[C@@H](O)[C@@H]3O)[C@H](O)[C@@H](O)[C@@H]2O)[C@H](O)[C@@H](O)[C@@H]1O` (stereo partly drawn) [Isomaltohexaose], for which the dissociation constant Kd in test [1] is 467 ± 156 µM.

Compound `OC[C@H]1O[C@H](OC[C@H]2O[C@H](OC[C@H]3O[C@H](OC[C@H]4O[C@H](OC[C@H]5OC(O)[C@H](O)[C@@H](O)[C@@H]5O)[C@H](O)[C@@H](O)[C@@H]4O)[C@H](O)[C@@H](O)[C@@H]3O)[C@H](O)[C@@H](O)[C@@H]2O)[C@H](O)[C@@H](O)[C@@H]1O` (stereo partly drawn) [Isomaltopentaose] yielded a dissociation constant Kd in test [1] of 226 ± 29 µM.

Turning to `OC[C@H]1O[C@H](OC[C@H]2OC(O)[C@H](O)[C@@H](O)[C@@H]2O)[C@H](O)[C@@H](O)[C@@H]1O` (stereo partly drawn) [Isomaltose], the “X-ray crystal structure, 1.80 Å” value in test [2] (crystal soaked with 10 mM IG2) is listed as “complexes with glucose, IG2, or IG3 were determined”.

Compound `OC[C@H]1O[C@H](OC[C@H]2O[C@H](OC[C@H]3O[C@H](OC[C@H]4OC(O)[C@H](O)[C@@H](O)[C@@H]4O)[C@H](O)[C@@H](O)[C@@H]3O)[C@H](O)[C@@H](O)[C@@H]2O)[C@H](O)[C@@H](O)[C@@H]1O` (stereo partly drawn) [Isomaltotetraose] gave a Kd in test [1] of 326 ± 14 µM.

Take `OC[C@H]1O[C@H](OC[C@H]2O[C@H](OC[C@H]3OC(O)[C@H](O)[C@@H](O)[C@@H]3O)[C@H](O)[C@@H](O)[C@@H]2O)[C@H](O)[C@@H](O)[C@@H]1O` (stereo partly drawn) [Isomaltotriose]: the Kd in test [1] was found to be 621 ± 23 µM.

Regarding `OC[C@H]1OC(O)[C@H](O)[C@@H](O)[C@@H]1O` (stereo partly drawn) [glucose], the “X-ray crystal structure, 1.80 Å” value in test [2] (crystal soaked with 10 mM glucose) is listed as “complexes with glucose, IG2, or IG3 were determined”.
